According to PubChem BioAssay AID1259407 (Chemical Carcinogenesis Research Information System (CCRIS), 2018):
The source made the active and inactive calls. The rule behind the calls is not given here.

Test system: CCRIS mutagenicity, Ames/micronucleus/aberration tests
Assay: CCRIS mutagenicity studies
[1] = Test System: AMES SALMONELLA TYPHIMURIUM, Strain/Indicator: TA98, Metabolic Activation: NONE, Method: STANDARD PLATE
[2] = Test System: AMES SALMONELLA TYPHIMURIUM, Strain/Indicator: TA100, Metabolic Activation: NONE, Method: STANDARD PLATE
[3] = Test System: AMES SALMONELLA TYPHIMURIUM, Strain/Indicator: TA1538, Metabolic Activation: NONE, Method: PREINCUBATION
[4] = Test System: AMES SALMONELLA TYPHIMURIUM, Strain/Indicator: TA1538, Metabolic Activation: NONE, Method: STANDARD PLATE
[5] = Test System: AMES SALMONELLA TYPHIMURIUM, Strain/Indicator: TA1538, Metabolic Activation: RAT, LIVER, S-9, AROCLOR 1254, Method: STANDARD PLATE

Measured: mutagenic call

Fc1c(F)c(F)c(Cl)c(F)c1F
inactive: Test System: AMES SALMONELLA TYPHIMURIUM, Strain/Indicator: TA98, Metabolic Activation: NONE, Method: PREINCUBATION inactive; negative | [1] inactive; negative | Test System: AMES SALMONELLA TYPHIMURIUM, Strain/Indicator: TA98, Metabolic Activation: RAT, LIVER, S-9, AROCLOR 1254, Method: PREINCUBATION inactive; negative | Test System: AMES SALMONELLA TYPHIMURIUM, Strain/Indicator: TA98, Metabolic Activation: RAT, LIVER, S-9, AROCLOR 1254, Method: STANDARD PLATE inactive; negative | Test System: AMES SALMONELLA TYPHIMURIUM, Strain/Indicator: TA100, Metabolic Activation: NONE, Method: PREINCUBATION inactive; negative | [2] inactive; negative | Test System: AMES SALMONELLA TYPHIMURIUM, Strain/Indicator: TA100, Metabolic Activation: RAT, LIVER, S-9, AROCLOR 1254, Method: PREINCUBATION inactive; negative | Test System: AMES SALMONELLA TYPHIMURIUM, Strain/Indicator: TA100, Metabolic Activation: RAT, LIVER, S-9, AROCLOR 1254, Method: STANDARD PLATE inactive; negative | Test System: AMES SALMONELLA TYPHIMURIUM, Strain/Indicator: TA1535, Metabolic Activation: NONE, Method: PREINCUBATION inactive; negative | Test System: AMES SALMONELLA TYPHIMURIUM, Strain/Indicator: TA1535, Metabolic Activation: NONE, Method: STANDARD PLATE inactive; negative | Test System: AMES SALMONELLA TYPHIMURIUM, Strain/Indicator: TA1535, Metabolic Activation: RAT, LIVER, S-9, AROCLOR 1254, Method: PREINCUBATION inactive; negative | Test System: AMES SALMONELLA TYPHIMURIUM, Strain/Indicator: TA1535, Metabolic Activation: RAT, LIVER, S-9, AROCLOR 1254, Method: STANDARD PLATE inactive; negative | Test System: AMES SALMONELLA TYPHIMURIUM, Strain/Indicator: TA1537, Metabolic Activation: NONE, Method: PREINCUBATION inactive; negative | Test System: AMES SALMONELLA TYPHIMURIUM, Strain/Indicator: TA1537, Metabolic Activation: NONE, Method: STANDARD PLATE inactive; negative | Test System: AMES SALMONELLA TYPHIMURIUM, Strain/Indicator: TA1537, Metabolic Activation: RAT, LIVER, S-9, AROCLOR 1254, Method: PREINCUBATION inactive; negative | Test System: AMES SALMONELLA TYPHIMURIUM, Strain/Indicator: TA1537, Metabolic Activation: RAT, LIVER, S-9, AROCLOR 1254, Method: STANDARD PLATE inactive; negative | [3] inactive; negative | [4] inactive; negative | Test System: AMES SALMONELLA TYPHIMURIUM, Strain/Indicator: TA1538, Metabolic Activation: RAT, LIVER, S-9, AROCLOR 1254, Method: PREINCUBATION inactive; negative | [5] inactive; negative | Test System: CHINESE HAMSTER OVARY, Strain/Indicator: CHO (HGPRT), Metabolic Activation: NONE inactive; negative | Test System: CHINESE HAMSTER OVARY, Strain/Indicator: CHO (HGPRT), Metabolic Activation: RAT, LIVER, S-9, AROCLOR 1254 inactive; negative | Test System: CHINESE HAMSTER OVARY, Strain/Indicator: CHO-K1-BH4 (HGPRT)/6-THIOGUANINE, Metabolic Activation: NONE, Method: SUSPENSION/PLATE inactive; negative | Test System: CHINESE HAMSTER OVARY, Strain/Indicator: CHO-K1-BH4 (HGPRT)/6-THIOGUANINE, Metabolic Activation: RAT, LIVER, S-9, AROCLOR 1254, Method: SUSPENSION/PLATE inactive; negative | Test System: CHO/HGPRT, Strain/Indicator: CHO-K1-BH4, Metabolic Activation: NONE, Method: SUSPENSION/PLATE inactive; negative | Test System: CHO/HGPRT, Strain/Indicator: CHO-K1-BH4, Metabolic Activation: RAT, LIVER, S-9, AROCLOR 1254, Method: SUSPENSION/PLATE inactive; negative | Test System: UDS RAT PRIMARY HEPATOCYTES, Strain/Indicator: THY INCORP, Metabolic Activation: NONE, Method: IN VIVO-IN VITRO inactive; negative | Test System: UDS RODENT HEPATOCYTES, Strain/Indicator: THY INCORP (NON-S-PHASE), Metabolic Activation: NONE inactive; negative

Fc1c(F)c(F)c2ncccc2c1F
active: Test System: AMES SALMONELLA TYPHIMURIUM, Strain/Indicator: TA100, Metabolic Activation: RAT LIVER S-9, PHENOBARBITAL AND 5,6-BENZOFLAVONE, Method: PREINCUBATION active; positive

Oc1cc(Cl)c(Cl)c(Cl)c1O
inactive: Test System: CHINESE HAMSTER V-79, Strain/Indicator: V-79/6-THIOGUANINE, Metabolic Activation: NONE, Method: STANDARD PLATE inactive; negative

O=C(/C=C/c1ccccc1)OC/C=C/c1ccccc1
active: [3] active; positive | Test System: Mouse lymphoma, Strain/Indicator: L5178Y (tk+/tk-), Metabolic Activation: None, Method: Suspension/plate active; inconclusive (previous evaluation positive) | Test System: Mouse lymphoma, Strain/Indicator: L5178Y (tk+/tk-), Metabolic Activation: Rat, Liver, S-9, Aroclor 1254, Method: Suspension/plate active; positive

CCCC(c1cc(C(C)(C)C)c(O)cc1C)c1cc(C(C)(C)C)c(O)cc1C
inactive: [1] inactive; negative | Test System: AMES SALMONELLA TYPHIMURIUM, Strain/Indicator: TA98, Metabolic Activation: S-9, Method: STANDARD PLATE inactive; negative | [2] inactive; negative | Test System: AMES SALMONELLA TYPHIMURIUM, Strain/Indicator: TA100, Metabolic Activation: S-9, Method: STANDARD PLATE inactive; negative

CCN(CC)c1ccc(-c2ccc(-c3ccc(-c4ccc(N(CC)CC)cc4)cc3)cc2)cc1
inactive: [4] inactive; negative | [5] inactive; negative
